Measurements published in BindingDB's records for doi:10.7270/Q2057DDB (Nmmlsc, 2011).

Target: T1, Vacuolar aminopeptidase 1 (Saccharomyces cerevisiae (strain ATCC 204508 / S288c), UniProt P14904)
T1 sequence (P14904 whole entry): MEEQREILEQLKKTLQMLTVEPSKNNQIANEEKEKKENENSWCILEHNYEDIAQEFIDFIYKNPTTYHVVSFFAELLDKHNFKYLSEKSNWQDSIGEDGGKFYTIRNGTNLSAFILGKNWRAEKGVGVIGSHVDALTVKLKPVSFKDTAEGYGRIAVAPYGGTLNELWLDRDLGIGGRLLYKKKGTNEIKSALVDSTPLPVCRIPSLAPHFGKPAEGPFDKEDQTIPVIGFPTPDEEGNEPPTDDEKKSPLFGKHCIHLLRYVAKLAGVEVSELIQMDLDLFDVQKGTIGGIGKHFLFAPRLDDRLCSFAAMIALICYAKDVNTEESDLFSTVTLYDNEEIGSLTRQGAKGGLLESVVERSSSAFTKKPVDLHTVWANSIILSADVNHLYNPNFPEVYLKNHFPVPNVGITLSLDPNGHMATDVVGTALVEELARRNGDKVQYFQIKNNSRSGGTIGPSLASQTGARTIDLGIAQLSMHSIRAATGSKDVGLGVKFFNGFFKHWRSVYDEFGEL
Assay: yeast LAP4 reporter analogs, concentration series – cell-based, cherry pick 3, flow cytometry, SAR follow-up (AID 488823)

[1] = inactive by the depositor's call

| Compound | EC50 [1] | EC50 |
| --- | --- | --- |
| CCOC(=O)CS(=O)(=O)c1nc(-c2ccccc2)cc(C(F)(F)F)n1 [2-[4-phenyl-6-(trifluoromethyl)pyrimidin-2-yl]sulfonylacetic acid ethyl ester] | 41.2 µM |  |
| NC(=O)c1ccnc2c(O)cccc12 [8-hydroxyquinoline-4-carboxamide;2,2,2-trifluoroacetic acid] |  | 35.4 µM |
| COc1cccc2c(Cl)c(CCCl)c(C)nc12 [MLS000720591] | 86.4 µM |  |
| Oc1ccc(Cl)c2cccnc12 [MLS002695956] | 208 µM |  |
| CCC(C)Nc1nc(N)c([N+](=O)[O-])c(Nc2cc(OC)ccc2OC)n1 (stereo not drawn) [N2-butan-2-yl-N4-(2,5-dimethoxyphenyl)-5-nitro-pyrimidine-2,4,6-triamine] | 37.3 µM |  |
| Cn1cccc1C(=O)Nc1nc(-c2ccccn2)cs1 [SMR000064459] | 79.6 µM |  |
| CCC(C)Nc1nc(N)c([N+](=O)[O-])c(Nc2ccccc2OC)n1 (stereo not drawn) [SMR000434817] | 35.9 µM |  |
| CCc1sc(C(=O)Nc2nc(-c3ccccn3)cs2)cc1C [SMR001314827] | 105 µM |  |
